# Assay results reported in paper PMC4160910 (European journal of medicinal chemistry, 2014).
# Columns and labels:
# [1] = test system: cultured adult S. japonicum worms; settings: ref [14],[20]; cited from earlier work
# [2] = test system: cultured adult S. haematobium worms; settings: ref [14],[20]; cited from earlier work
# [3] = test system: all stages of S. mansoni; settings: ref [14],[20]; cited from earlier work
# [4] = test system: adult Schistosoma mansoni worms; test: Worm killing of cultured adult worms, monitored over 144 hrs; format: cell-based; settings: at the concentrations tested (10 and 50 µM)
# [5] = test system: adult Schistosoma mansoni worms; test: Worm contraction of cultured adult worms; format: cell-based; settings: after overnight culture with compound, 10 and 50 µM
SMILES,Activity against cultured adult S. japonicum worms [1],Activity against cultured adult S. haematobium worms [2],Activity against all stages of S. mansoni [3],Time at which worms begin to die after compound is removed from culture media [4] [days],Time for worms to return to normal length [5] [days]
"N#Cc1c(-c2ccccc2)no[n+]1[O-] [Compound 2, 4-phenylfuroxan-3-carbonitrile]",active,active,active,,
"O=C(C1CCCCC1)N1CC(=O)N2CCc3ccccc3C2C1 (centres unmarked) [PZQ, 2-(cyclohexylcarbonyl)-1,2,3,6,7,11b-hexahydro-4H-pyrazino[2,1-a]isoquinolin-4-one]",,,,4 to 5,> 2
